Source: patent US20100143999A1, “PROCESS FOR FERMENTIVE PREPARATION OF ALCOHOLS AND RECOVERY OF PRODUCT” (E.I. DU PONT DE NEMOURS AND COMPANY, priority 2008, published 2010)

Assays:
[1] = tested on: Saccharomyces cerevisiae (W1362 20A); experiment: Scale-up fermentation (25 mL broth) with 5 volume percent ionic liquid, HPLC over five hours; format: cell-based; conditions: five hour time span, FIG. 2
Protocol: Cultures were again prepared using the same growth conditions as described above except that the total broth volume was 25 mL. The selected ionic liquids were added to a container of each broth in an amount of 5 volume percent. In these experiments, small samples were withdrawn from the broth for HPLC analysis periodically over a five hour time span to get a better idea of the extent of metabolic activity after ionic liquid addition as well as to provide information on glucose consumption and product formation. […] The calculation of GUI was made as described above, and amount of ethanol produced was taken directly from the HPLC data.

[2] = Extraction of isobutanol from an aqueous solution by ionic liquid; format: physicochemical; conditions: 3 mL aqueous solution about 31 g/L isobutanol, 150 microliters (5 vol %) ionic liquid, overnight equilibration
Protocol: (§1) Ethanol and isobutanol concentration in the solution was measured using HPLC as described above following thorough mixing and overnight equilibration of the contents of the vial.

[3] = tested on: Saccharomyces cerevisiae (W1362 20A); experiment: Glucose Uptake Index of S. cerevisiae culture with 5% (v/v) ionic liquid; format: cell-based; conditions: YPD medium, 30° C., 16 hours after addition
Protocol: After 24 hours the test tube was removed and stored at 4° C.

[4] = Extraction of ethanol from an aqueous solution by ionic liquid; format: physicochemical; conditions: 3 mL aqueous solution about 31 g/L ethanol, 150 microliters (5 vol %) ionic liquid, overnight equilibration
Protocol: as §1

| Molecule | ethanol production [1] | glucose uptake [1] | Isobutanol (concentration in the solution after extraction) [2] | GUI of Example (Glucose Utilization Index in the presence of ionic liquid phase) [3] | Ethanol (concentration in the solution after extraction) [4] | GUI of Example (Glucose Utilization Index in the presence of ionic liquid phase) ([3]; listed as 14) |
| --- | --- | --- | --- | --- | --- | --- |
| 1-butyl-3-methylpyrrolidinium bis(trifluoromethylsulfonyl)imide [Example 15] | remained robust | remained robust | – | – | – | – |
| 1-ethyl-3-methylimidazolium bis(trifluoromethylsulfonyl)imide [Example 6] | remained robust | remained robust | 389 mM | 76.8 | 670 mM | – |
| 3-methyl-1-propylpyridinium bis(trifluoromethylsulfonyl)imide [Example 12] | – | – | – | 97.1 | – | – |
| 1-butyl-3-methylimidazolium 1,1,2-trifluoro-2-(perfluoroethoxy)ethanesulfonate [Example 4] | – | – | – | 22.0 | – | – |
| CCCCn1cc[n+](C)c1.F[P-](F)(F)(F)(F)F [Example 7, 1-butyl-3-methylimidazolium hexafluorophosphate] | – | – | – | 48.2 | – | – |
| CCCCCCn1cc[n+](C)c1.FC(F)(F)C(F)(F)[P-](F)(F)(F)(C(F)(F)C(F)(F)F)C(F)(F)C(F)(F)F [Example 1, 1-hexyl-3-methylimidazolium tris(pentafluoroethyl)trifluorophosphate] | remained robust | remained robust | 404 mM | 99.7 | 680 mM | – |
| 1-butyl-3-methylimidazolium 1,1,2,3,3,3-hexafluoropropanesulfonate [Example 11] | – | – | – | 30.1 | – | 31.9 |
| 1-butyl-3-methylimidazolium 2-(1,2,2,2-tetrafluoroethoxy)-1,1,2,2-tetrafluoroethanesulfonate [Example 13] | – | – | – | 42.8 | – | – |
| 1-butyl-3-methylimidazolium 1,1,2-trifluoro-2-(trifluoromethoxy)ethanesulfonate [Example 10] | – | – | – | 37.1 | – | – |
| tetradecyl(tri-n-hexyl)phosphonium 1,1,2-trifluoro-2-(perfluoroethoxy)ethanesulfonate [Example 2] | – | – | – | 78.4 | – | – |
| 1-hexyl-3-methylimidazolium bis(trifluoromethylsulfonyl)imide [Example 9] | remained robust | remained robust | 388 mM | 89.5 | 678 mM | – |
